# Measured values reported in patent US20070280972A1, “Adhesive solid gel-forming formulations for dermal drug delivery” (ZARS, Inc., priority 2006, published 2007).
# Where two headings read alike, the source gives them in different places.
# Columns and labels:
# [1] = In vitro skin flux, Franz diffusion cell, hairless mouse skin; settings: for steady state flux in solid gel-forming formulation compared with flux-enabling non-volatile solvent alone: Table 16 vs solvent tables; for Avg. Flux / Average Flux: mean and st. dev of three; for Skin Flux: excess drug, linear region 4-8 hours, mean ± SD of three
# [2] = Estimated therapeutically sufficient flux (steady state flux of marketed products, in vitro)
# [3] = In vitro skin flux, Franz diffusion cell, human epidermal membrane / human cadaver skin; assay type: in vitro ADME; settings: for Skin Flux: 0.1% (w/w) clobetasol propionate, human cadaver skin (HEM), linear region 6-28 hours, mean ± SD of three
# [4] = as above; assay type: in vitro ADME; settings: for duration over which steady-state delivery is shown: cumulative amount delivered across human cadaver skin from a solidified gel formulation (FIG. 1, FIG. 2)
# [5] = pH 7.4
# [6] = non-volatile solvent system: Ethyl oleate, hairless mouse skin
# [7] = non-volatile solvent system: Isostearic acid, 200 mcL on hairless mouse skin
# [8] = non-volatile solvent system: Oleic acid, hairless mouse skin
# [9] = non-volatile solvent system: Polyethylene glycol 400, 200 mcL on hairless mouse skin
# [10] = non-volatile solvent: Polyethylene glycol 400, hairless mouse skin
# [11] = steady state flux of marketed product through hairless mouse or human epidermal membrane, method of Example 1, estimate
# [12] = non-volatile solvent system: Glycerol, hairless mouse skin
# [13] = non-volatile solvent system: Propylene glycol, hairless mouse skin
# [14] = non-volatile solvent system: Span 20 (sorbitan laurate), hairless mouse skin
# [15] = non-volatile solvent system: Isopropyl myristate, hairless mouse skin
# [16] = solvents isopropyl myristate, ethyl oleate, propylene glycol, and Span 20, hairless mouse skin
smiles,measurement,setting,value
"Nc1nc2c(ncn2COCCO)c(=O)[nH]1 [Acyclovir, acyclovir]",steady state flux in solid gel-forming formulation compared with flux-enabling non-volatile solvent alone,[1]; hairless mouse skin,higher
same,Avg. Flux,"[1]; high flux-enabling non-volatile solvent: ISA + 30% trolamine, hairless mouse skin",7 ± 2 μg/cm2/h
same,Skin Flux,"[1]; non-volatile solvent system: Ethyl oleate + 10% trolamine, hairless mouse skin",0.2 ± 0.2 μg/cm^2/h
same,Skin Flux,[1]; [6],0.2 ± 0.2 μg/cm^2/h
same,Skin Flux,"[1]; non-volatile solvent system: Isostearic acid + 10% trolamine, hairless mouse skin",2.7 ± 0.6 μg/cm^2/h
same,Skin Flux,"[1]; non-volatile solvent system: Isostearic acid + 30% trolamine, hairless mouse skin",7 ± 2 μg/cm^2/h
same,Skin Flux,[1]; [7],0.1 ± 0.09 μg/cm^2/h
same,Skin Flux,"[1]; non-volatile solvent system: Oleic acid + 10% trolamine, hairless mouse skin",3.7 ± 0.5 μg/cm^2/h
same,Skin Flux,"[1]; non-volatile solvent system: Oleic acid + 30% trolamine, hairless mouse skin",14 ± 5 μg/cm^2/h
same,Skin Flux,[1]; [8],0.4 ± 0.3 μg/cm^2/h
same,Skin Flux,[1]; [9],0 μg/cm^2/h
same,Skin Flux,"[1]; non-volatile solvent system: Span 80 (sorbitan monooleate), hairless mouse skin",0.07 ± 0.03 μg/cm^2/h
same,Average Flux,"[1]; non-volatile solvent: Isostearic acid + 10% trolamine, hairless mouse skin",2.7 ± 0.6 μg/cm2/hr
same,Average Flux,[1]; [10],0 μg/cm2/hr
same,Estimated Therapeutically sufficient flux,[2]; [11],3 μg/cm^2/h
same,Estimated Therapeutically sufficient flux,"[2]; steady state flux of marketed product through hairless mouse or human epidermal membrane, method of Example 1, estimate, listed as acyclovir",about 3 μg/cm^2/h
"CCC(=O)O[C@]1(C(=O)CCl)[C@@H](C)C[C@H]2[C@@H]3CCC4=CC(=O)C=C[C@]4(C)[C@@]3(F)[C@@H](O)C[C@@]21C [Clobetasol propionate, clobetasol propionate]",Average Flux,"[3]; all the neat non-volatile solutions studied, over a 30 hour time period, human cadaver skin",less than 50 ng/cm^2/hr
same,Average Flux,"[3]; non-volatile solvent: Isostearic acid (ISA), human epidermal membrane, mean and st. dev of three",0.019 ± 0.003 μg/cm2/hr
same,Average Flux,"[3]; non-volatile solvent: Light mineral oil, human epidermal membrane, mean and st. dev of three",0.031 ± 0.003 μg/cm2/hr
same,Average Flux,"[3]; non-volatile solvent: Propylene glycol, human epidermal membrane, mean and st. dev of three",0.0038 ± 0.0004 μg/cm2/hr
same,average flux relative to light mineral oil,[3]; propylene glycol and isostearic acid at a weight ratio of 9:1 vs light mineral oil,20 times
same,Skin Flux,[3]; solvent: Ethyl oleate,19.4 ± 1.6 ng/cm^2/h
same,Skin Flux,[3]; solvent: Glycerol,7.0 ± 4.1 ng/cm^2/h
same,Skin Flux,[3]; solvent: Isostearic acid (ISA),19.4 ± 3.2 ng/cm^2/h
same,Skin Flux,[3]; solvent: Light mineral oil,31.2 ± 3.4 ng/cm^2/h
same,Skin Flux,[3]; solvent: Olive oil,13.6 ± 3.3 ng/cm^2/h
same,Avg. Flux,"[3]; solvent: PG + ISA (Ratio of PG:ISA ranging from 200:1 to 1:1), value is for 9:1 mixture, human epidermal membrane",0.8 ± 0.2 μg/cm2/h
same,Skin Flux,[3]; solvent: Propylene glycol/ISA (9:1),764.7 ± 193.9 ng/cm^2/h
same,Skin Flux,"[3]; solvent: Propylene glycol, 200 mcl",3.8 ± 0.4 ng/cm^2/h
C[C@H]1C[C@H]2[C@@H]3CCC4=CC(=O)C=C[C@]4(C)[C@@]3(F)[C@@H](O)C[C@]2(C)[C@@]1(O)C(=O)CCl [Clobetasol],Estimated Therapeutically sufficient flux,[2]; [11],0.05 μg/cm^2/h
O=C(O)Cc1ccccc1Nc1c(Cl)cccc1Cl [Diclofenac],duration over which steady-state delivery is shown,[4],28 h
same,steady state flux in solid gel-forming formulation compared with flux-enabling non-volatile solvent alone,"[4]; formulation (Example 16) tested on human epidermal membrane, solvent on hairless mouse skin",lower
same,Estimated Therapeutically sufficient flux,[2]; [11],1 μg/cm^2/h
"CC(C)Cn1cnc2c(N)nc3ccccc3c21 [Imiquimod, imiquimod]",steady state flux in solid gel-forming formulation compared with flux-enabling non-volatile solvent alone,[1]; hairless mouse skin,unchanged
same,Skin Flux,[1]; [12],0 μg/cm^2/h
same,Skin Flux,[1]; [7],0.30 ± 0.06 μg/cm^2/h
same,Skin Flux,[1]; [13],0.05 ± 0.02 μg/cm^2/h
same,Skin Flux,[1]; [14],0.30 ± 0.05 μg/cm^2/h
same,Skin Flux,"[1]; non-volatile solvent system: Tween 60 (polyoxyethylene sorbitan monostearate), hairless mouse skin",0.02 ± 0.01 μg/cm^2/h
"CC(C(=O)O)c1cccc(C(=O)c2ccccc2)c1 (stereo not shown) [Ketoprofen, ketoprofen]",steady state flux in solid gel-forming formulation compared with flux-enabling non-volatile solvent alone,[1]; hairless mouse skin,lower
same,Avg. Flux,"[1]; high flux-enabling non-volatile solvent: Propylene glycol, hairless mouse skin",90 ± 50 μg/cm2/h
same,Skin Flux,[1]; [12],2 ± 1 μg/cm^2/h
same,Skin Flux,[1]; [8],180 ± 20 μg/cm^2/h
same,Skin Flux,[1]; [9],5 ± 2 μg/cm^2/h
same,Skin Flux,[1]; [13],90 ± 50 μg/cm^2/h
same,Skin Flux,[1]; [14],15 ± 3 μg/cm^2/h
same,Average Flux,[1]; [10],5 ± 2 μg/cm2/hr
same,Average Flux,"[1]; non-volatile solvent: Span 20, hairless mouse skin",15 ± 3 μg/cm2/hr
same,Estimated Therapeutically sufficient flux,[2]; [11],16 μg/cm^2/h
same,Estimated Therapeutically sufficient flux,"[2]; steady state flux of marketed product through hairless mouse or human epidermal membrane, method of Example 1, estimate, listed as ketoprofen",about 16 μg/cm^2/h
"CCCN1CCCC[C@H]1C(=O)Nc1c(C)cccc1C [Ropivacaine, ropivacaine]",duration over which steady-state delivery is shown,[4],30 h
same,steady state flux in solid gel-forming formulation compared with flux-enabling non-volatile solvent alone,[1]; hairless mouse skin,higher
same,Avg. Flux,"[1]; high flux-enabling non-volatile solvent: ISA, hairless mouse skin",11 ± 2 μg/cm2/h
same,Avg. Flux,"[1]; high flux-enabling non-volatile solvent: Span 20, hairless mouse skin",26 ± 8 μg/cm2/h
same,Skin Flux,[1]; [12],1.2 ± 0.7 μg/cm^2/h
same,Skin Flux,[1]; [7],11 ± 2 μg/cm^2/h
same,Skin Flux,"[1]; non-volatile solvent system: Mineral oil, hairless mouse skin",8.9 ± 0.6 μg/cm^2/h
same,Skin Flux,[1]; [14],26 ± 8 μg/cm^2/h
same,Skin Flux,"[1]; non-volatile solvent system: Tween 20 (polyoxyethylene sorbitan monolaurate), hairless mouse skin",2.4 ± 0.1 μg/cm^2/h
same,Average Flux,"[1]; non-volatile solvent: Glycerol, hairless mouse skin",1.2 ± 0.7 μg/cm2/hr
same,Average Flux,"[1]; non-volatile solvent: Mineral oil, hairless mouse skin",8.9 ± 0.6 μg/cm2/hr
same,Estimated Therapeutically sufficient flux,[2]; Estimated flux based on known potency relative to lidocaine,5 μg/cm^2/h
same,Estimated Therapeutically sufficient flux,"[2]; Estimated flux based on known potency relative to lidocaine, listed as ropivacaine base",about 5 μg/cm^2/h
"C[C@]12CC[C@H]3[C@@H](CCC4=CC(=O)CC[C@@]43C)[C@@H]1CC[C@@H]2O [Testosterone, testosterone]",Estimated Therapeutically sufficient flux,[5],0.8 μg/cm^2/h
O=C(O)Cc1ccccc1Nc1c(Cl)cccc1Cl [diclofenac acid],Skin Flux,[1]; [6],7 ± 3 μg/cm^2/h
same,Skin Flux,[1]; [12],0 μg/cm^2/h
same,Skin Flux,[1]; [15],8 ± 3 μg/cm^2/h
same,Skin Flux,[1]; [13],5 ± 2 μg/cm^2/h
same,Skin Flux,[1]; [14],3 ± 1 μg/cm^2/h
same,steady state flux relative to currently available marketed products,[1]; [16],no more than 10 times
O=C(O)Cc1ccccc1Nc1c(Cl)cccc1Cl [diclofenac sodium],Skin Flux,[1]; [6],14 ± 4 μg/cm^2/h
same,Skin Flux,[1]; [12],1.7 ± 0.3 μg/cm^2/h
same,Skin Flux,[1]; [15],13 ± 3 μg/cm^2/h
same,Skin Flux,[1]; [13],30 ± 30 μg/cm^2/h
same,Skin Flux,[1]; [14],98 ± 20 μg/cm^2/h
same,steady state flux relative to flux value for glycerol,[1]; [16],at least 10 times
